{"source": "patent US20140242093A1", "about": "“METHODS AND COMPOSITIONS FOR MODULATING THE INNATE IMMUNE RESPONSE AND/OR MYOGENESIS IN A MAMMALIAN SUBJECT” (FRED HUTCHINSON CANCER RESEARCH CENTER, priority 2011, published 2014)", "key": {"FSHD muscle cells": {"system": "FSHD muscle cells", "assay": "DUX4-fl mRNA RT-PCR in FSHD muscle cells treated with MAO inhibitors", "format": "cell-based, human", "details": "for abundance of DUX4-fl mRNA: quantitative RT-PCR, FIG. 4", "description": "Middle panel is a no RT control and bottom panel is a GAPDH loading control."}, "HCT116 cells": {"system": "HCT116 cells", "assay": "RT-PCR of DUX4-fl and cancer testis antigens in HCT116 cells treated with azacytidine", "format": "cell-based, human", "method": "The relative expression of the CTA in each row was measured by RT-PCR and represented as high (light shading) or low (dark shading)."}, "FSHD fibroblasts": {"system": "FSHD fibroblasts", "assay": "DUX4 mRNA decay with cycloheximide in FSHD fibroblasts with inducible MyoD", "format": "cell-based, human", "details": "38 hours in differentiation conditions, MyoD induction", "method": "FSHD fibroblasts expressing low amounds of DUX4 mRNA were stably transduced with a beta-estradiol inducible MyoD so that addition of beta-estradiol will convert them to skeletal muscle, which after 96 hours of induction increases the steady-state levels of the DUX4 mRNA and activates expression of the MyoD target Mgn. […] Washout of the chx results in the rapid loss of the DUX4 mRNA, disappearing between 2 and 8 hrs of washout. The loss of DUX4 mRNA is associated with its translation since the DUX4 target PRAME 1 is induced as the DUX4 mRNA disappears."}, "[1]": {"system": "control human primary myoblasts", "assay": "Expression microarray of primary myoblasts transduced with lentivirus carrying DUX4-fl, DUX4-s or GFP", "method": "Primary human myoblasts were collected and cultured as previously described (Snider et al., 2010). Primary myoblasts were maintained at or below 70% confluency for proliferation. For differentiation, cells were allowed to reach 95-100% confluency in growth medium. Once confluency was reached, the cells were changed to differentiation medium (F10 media supplemented with 1% horse serum, 10 μg/mL insulin, and 10 μg/mL transferrin, penicillin/streptomycin) and maintained for 4 days. Human RD cells were grown in DMEM in 10% bovine calf serum (Hyclone) and penicillin/streptomycin. The primary myoblasts were transduced with lentivirus carrying DUX-fl, DUX4- or GFP (MOI=15).\nExpression microarrays were performed on the transduced cells at 24 hours after transduction as follows. […] Samples were analyzed by Illumina Human Whole Genome microarrays. Probe intensities were corrected, normalized, and summarized by the Lumi package of Bioconductor (Du et al., 2008). Differentially expressed genes were identified by the LIMMA package of Bioconductor (Wettenhall and Smyth, 2004). Gene set enrichment analysis (GSEA) was performed using the Bioconductor GOstats package (Falcon and Gentleman, 2007)."}, "Human FSHD myoblasts": {"system": "Human FSHD myoblasts", "assay": "siRNA knock-down of UPF1 in FSHD myoblasts", "format": "cell-based", "method": "Method for transfection of myoblasts with siUPF1 (siRNA against UPF1): Human FSHD myoblasts were plated for transfection at 30% confluency in F10 media containing 20% FBS and no antibiotics. siRNA targeting siUPF1 (ThermoScientific) was transfected at 100 nM final concentration using Lipofectamine 2000 according to manufacturers protocol. siLuciferase was used as a negative control. Following overnight incubation of cells with transfection complexes the cells were washed with PBS and fed fresh growth media: F10 media, 20% FBS, dexamethasone (1 uM) and fgf (10 ng/ml). When cultures reached confluency growth media was replaced with serum free differentiation media (F10 media, insulin and transferrin at 10 ug/ml each) and culture continued for 48 hours. Total RNA was isolated using Qiagen RNeasy columns and analysis for expression of Dux4 mRNA and for target gene activation was performed."}}}
{"molecule": "N[C@@H]1C[C@H]1c1ccccc1", "note": "(racemic) [tranylcypromine]", "values": [{"measurement": "abundance of DUX4-fl mRNA", "setting": "FSHD muscle cells", "result": "had no inhibitory effect"}]}
{"molecule": "Nc1ncn([C@@H]2O[C@H](CO)[C@@H](O)[C@H]2O)c(=O)n1", "note": "[5-azacytidine]", "values": [{"measurement": "expression of cancer testis antigens", "setting": "HCT116 cells; RT-PCR heat map FIG. 3, HCT116 cells", "result": "robust induction"}, {"measurement": "DUX4-fl expression", "setting": "HCT116 cells; RT-PCR, HCT116 cells", "result": "induces the expression of DUX4-fl"}]}
{"molecule": "C[C@@H]1C[C@@H]([C@H](O)CC2CC(=O)NC(=O)C2)C(=O)[C@@H](C)C1", "note": "[cycloheximide]", "values": [{"measurement": "DUX4 mRNA", "setting": "FSHD fibroblasts", "result": "significant increase in DUX4 mRNA"}]}
{"molecule": "C#CCN(C)Cc1ccccc1", "note": "[pargyline, N-Benzyl-N-methylprop-2-yn-1-amine]", "values": [{"measurement": "DUX4 mRNA expression", "setting": "FSHD muscle cells; RT-PCR, 48 hours in differentiation medium, varying amounts, FIG. 5", "result": "dose-dependent inhibition of DUX4 expression"}, {"measurement": "abundance of DUX4-fl mRNA", "setting": "FSHD muscle cells", "result": "decreases the abundance of DUX4-fl mRNA in a dose-dependent manner"}]}
{"molecule": "DUX4", "values": [{"measurement": "Fc range", "setting": "[1]; Family with sequence similarity 90: FAM90A1, FAM90A2P, FAM90A6P, FAM90A7", "result": "9-19"}, {"measurement": "Fc range", "setting": "[1]; KH homology domain containing family: KHDC1, KHDC1L", "result": "108-258"}, {"measurement": "Fc range", "setting": "[1]; Methyl-binding protein-like family: MBD3L2, MBD3L3, MBD3L5", "result": "197-310"}, {"measurement": "Fc range", "setting": "[1]; Preferentially expressed in melanoma family: PRAMEF1, PRAMEF2, PRAMEF4-15, PRAMEF17, PRAMEF20", "result": "9-269"}, {"measurement": "Fc range", "setting": "[1]; Ret-finger Protein-like family: RFPL1, RFPL1S, RFPL2, RFPL3, RFPL4A, RFPL4B", "result": "20-336"}, {"measurement": "Fc range", "setting": "[1]; Tripartite motif-containing family: TRIM43, TRIM48, TRIM49, TRIM53, TRIM64", "result": "27-235"}, {"measurement": "Fc range", "setting": "[1]; Zinc finger and SCAN domain containing family: ZSCAN4, ZSCAN5B, ZSCAN5D", "result": "13-320"}]}
{"molecule": "GAUGCAGUUCCGCUCCAUUUU [siUPF1]", "values": [{"measurement": "expression of DUX4 target gene ZSCAN4", "setting": "Human FSHD myoblasts; RT-qPCR", "result": "increases"}, {"measurement": "DUX4 mRNA", "setting": "Human FSHD myoblasts; semiquantitative RT-PCR, differentiation medium, vs siluc", "result": "at higher levels"}]}
